Like-named read-outs stand apart in the source and are kept apart here.
Experiments:
HDAC1 = HDAC1 (Homo sapiens, UniProt Q13547); assay: In vitro biochemical HDAC enzyme assay; conditions: 24 hours pre-incubation; mean, n = 4
Procedure: (§1) In vitro biochemical assays were performed as described previously. Specifically, drugs were dissolved and diluted in assay buffer (50 mM HEPES, pH 7.4, 100 mM KCl, 0.001% Tween-20, 0.05% BSA, and 20 μM Tris (2-carboxyethyl)phosphine) to 6-fold the final concentration. HDAC enzymes (BPS Biosciences) were diluted to 1.5-fold of the final concentration in assay buffer and pre-incubated with ACY-957 for 24 hours before the addition of the substrate. The amount of substrate (acetyl-lysine tripeptide substrate for HDAC1, HDAC2, HDAC3, and HDAC6 or trifluoroacetyl-lysine tripeptide for HDAC4, HDAC5, HDAC7, HDAC8, and HDAC9) used for each enzyme was equal to the Michaelis constant (Km), as determined by a titration curve. Substrate was diluted in assay buffer to 6-fold the final concentration with 0.3 μM sequencing grade trypsin (Sigma-Aldrich). The substrate/trypsin mix was added to the enzyme/compound mix and the plate was shaken for 5 seconds and then placed into a SpectraMax M5 microtiter plate reader (Molecular Devices). The enzymatic reaction was monitored over 30 minutes for release of […] after deacetylation of the lysine side chain in the peptide substrate, and the linear rate of the reaction was calculated.
(§2) ACY-957 was tested against each individual HDAC in an in vitro biochemical assay as previously described. Aminobenzamides have slow association rate constants, therefore a prolonged pre-incubation time of 24 hours is required to reach equilibrium.

HDAC3 = HDAC3 (Homo sapiens, UniProt O15379); assay: In vitro biochemical HDAC enzyme assay
Procedure: as §1, §2

HDAC4 = test system: T1, HDAC4; assay: In vitro biochemical HDAC enzyme assay; conditions: at concentrations as high as 20 μM
T1 construct: purchased BPS Biosciences
Procedure: as §1, §2

HDAC5 = test system: T2, HDAC5; assay: In vitro biochemical HDAC enzyme assay; conditions: at concentrations as high as 20 μM
T2 construct: purchased BPS Biosciences
Procedure: as §1, §2

HDAC6 = test system: T3, HDAC6; assay: In vitro biochemical HDAC enzyme assay; conditions: at concentrations as high as 20 μM
T3 construct: purchased BPS Biosciences
Procedure: as §1, §2

HDAC7 = test system: T4, HDAC7; assay: In vitro biochemical HDAC enzyme assay; conditions: at concentrations as high as 20 μM
T4 construct: purchased BPS Biosciences
Procedure: as §1, §2

HDAC8 = test system: T5, HDAC8; assay: In vitro biochemical HDAC enzyme assay; conditions: at concentrations as high as 20 μM
T5 construct: purchased BPS Biosciences
Procedure: as §1, §2

HDAC9 = test system: T6, HDAC9; assay: In vitro biochemical HDAC enzyme assay; conditions: at concentrations as high as 20 μM
T6 construct: purchased BPS Biosciences
Procedure: as §1, §2

HBG mRNA = HBG mRNA in burst forming unit erythroid (BFU-E) colonies; format: cell-based, human; conditions: 14 days
Procedure: Burst forming unit erythroid (BFU-E) assays were performed by ReachBio Research Labs (Seattle, WA). On the day of the experiment, normal human bone marrow mononuclear cells (Lonza) were thawed rapidly, diluted in 10 mL of IMDM containing 10% fetal bovine serum and washed by centrifugation. The supernatant was discarded and the cell pellet resuspended in a known volume of IMDM + 10% FBS. ACY-957 or vehicle was added to a semi-solid methylcellulose-based media formulation containing IL3 (10 ng/mL), CSF2 (10 ng/mL), KITLG (50 ng/mL), and EPO (3 U/mL) and plated in triplicate. BFU-E assays were initiated at 2.5 x 10^4 cells per culture. Following 14–16 days in culture, BFU-E colonies were isolated and RNA purified using the RNeasy Micro Kit (Qiagen).
Globin mRNA was detected using quantitative real time PCR (QPCR). Total RNA was isolated using RNeasy Micro Kit (Qiagen) with on-column DNase digestion, converted into cDNA using the High Capacity RNA-to-cDNA Kit (Life Technologies), diluted 5-fold with water, and 1 μL used as a template for QPCR. The percent of each β-like globin transcript was determined using the absolute standard curve method. Briefly, DNA corresponding to the full length transcript for each globin isoform was cloned into […] plasmid (GenScript, Piscataway NJ). Each plasmid was validated against each QPCR probe to ensure specificity. Plasmids were pooled at equal molar concentration and a dilution series spanning 8-logs was utilized as the standard curve. Throughout this work, ‘HBG mRNA (%)’ and ‘percent HBG mRNA’ refers to the abundance of HBG mRNA expressed relative to the sum of the abundances of all β-like globin transcripts, i.e. [HBG/(HBB+HBD+HBG+HBE)]*100. In cases where the transcript of interest was compared against the housekeeping gene ACTB, the comparative Ct ([…]) method was utilized. […]

[1] = set-up: method as in earlier work; conditions: mouse; cited from earlier work
[2] = set-up: method as in earlier work; conditions: dog; cited from earlier work
[3] = set-up: method as in earlier work; conditions: monkey; cited from earlier work
HDAC2 [4] = molecular target: T7, HDAC2 (Homo sapiens, UniProt Q92769); assay: In vitro biochemical HDAC enzyme assay; set-up: purchased BPS Biosciences; conditions: 24 hours pre-incubation; mean, n = 4
Procedure: as §1
ACY-957 was tested against each individual HDAC in an in vitro biochemical assay as previously described. […]

HDAC2 [5] = molecular target: T7, HDAC2; assay: Cellular HDAC2 inhibition (HDAC-Glo 2 Kit) in BM cells; format: cell-based; set-up: endogenous in cells; host or cells: primary human bone marrow (BM) cells expanded in CS1 media; conditions: CS1 expansion media 6 days, then 48 hours with compound, n = 6
Procedure: The HDAC-Glo 2 Kit (Promega) was used for in vivo HDAC2 inhibition assays [27, 28]. First, BM cells were expanded in CS1 for 6 days. Next, 25000 cells in 25 μL of CS1 expansion media was placed in a 384-well plate in the presence of compound. Cells were cultured for an additional 48 hours, followed by luminescence detection in the lytic format as described by the manufacturer’s protocol.

Sequence of HDAC3 (O15379 whole entry): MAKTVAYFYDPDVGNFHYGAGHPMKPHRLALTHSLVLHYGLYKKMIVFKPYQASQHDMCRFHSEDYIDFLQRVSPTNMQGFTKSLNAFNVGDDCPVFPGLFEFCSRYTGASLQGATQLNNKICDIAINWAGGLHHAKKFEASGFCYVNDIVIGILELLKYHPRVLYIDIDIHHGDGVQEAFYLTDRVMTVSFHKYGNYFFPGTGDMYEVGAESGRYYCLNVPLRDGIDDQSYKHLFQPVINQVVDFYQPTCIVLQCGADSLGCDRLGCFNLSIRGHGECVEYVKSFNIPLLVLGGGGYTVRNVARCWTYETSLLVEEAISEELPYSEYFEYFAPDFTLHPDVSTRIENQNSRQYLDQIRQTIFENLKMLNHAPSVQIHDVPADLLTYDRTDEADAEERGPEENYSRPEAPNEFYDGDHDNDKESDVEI
Sequence of HDAC3 (Q9Y618 395-489 partner limits assumed): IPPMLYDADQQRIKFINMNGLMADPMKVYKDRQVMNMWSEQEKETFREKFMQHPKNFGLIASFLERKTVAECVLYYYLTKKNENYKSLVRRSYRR
T7 sequence (Q92769 whole entry): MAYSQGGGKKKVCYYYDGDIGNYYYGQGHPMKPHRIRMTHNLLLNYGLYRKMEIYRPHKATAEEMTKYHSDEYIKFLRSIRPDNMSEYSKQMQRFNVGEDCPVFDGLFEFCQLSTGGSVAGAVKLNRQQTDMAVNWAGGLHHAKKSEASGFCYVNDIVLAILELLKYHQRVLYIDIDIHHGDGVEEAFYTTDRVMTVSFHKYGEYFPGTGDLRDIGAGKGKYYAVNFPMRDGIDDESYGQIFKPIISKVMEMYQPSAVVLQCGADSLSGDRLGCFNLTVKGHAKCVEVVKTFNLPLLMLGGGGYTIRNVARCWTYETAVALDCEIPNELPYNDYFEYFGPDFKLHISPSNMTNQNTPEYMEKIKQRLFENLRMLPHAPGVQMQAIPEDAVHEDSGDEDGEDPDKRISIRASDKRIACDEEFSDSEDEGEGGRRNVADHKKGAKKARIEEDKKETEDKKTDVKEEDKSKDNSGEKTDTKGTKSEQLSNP
Sequence of HDAC1 (Q13547 whole entry): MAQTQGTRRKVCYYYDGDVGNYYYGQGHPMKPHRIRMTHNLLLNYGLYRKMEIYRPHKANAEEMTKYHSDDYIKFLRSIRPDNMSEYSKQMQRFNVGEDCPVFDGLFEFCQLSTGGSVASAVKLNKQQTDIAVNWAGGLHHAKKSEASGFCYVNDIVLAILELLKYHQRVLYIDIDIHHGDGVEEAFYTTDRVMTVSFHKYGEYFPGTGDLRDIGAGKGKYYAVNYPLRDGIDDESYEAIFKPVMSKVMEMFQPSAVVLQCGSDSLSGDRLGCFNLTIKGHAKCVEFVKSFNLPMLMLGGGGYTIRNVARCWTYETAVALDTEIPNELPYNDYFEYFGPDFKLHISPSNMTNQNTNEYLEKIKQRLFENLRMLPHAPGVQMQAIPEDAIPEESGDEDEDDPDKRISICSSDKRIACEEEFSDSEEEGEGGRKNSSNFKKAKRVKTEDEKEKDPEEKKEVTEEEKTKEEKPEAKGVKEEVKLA

Nc1ccc(-c2cccs2)cc1NC(=O)c1ccc2nc(N3CCNCC3)ccc2c1 [ACY-957]
IC50 (HDAC1): 7 nM | IC50 (HDAC3; 24 hours pre-incubation, mean, n = 4): 1300 nM | selectivity for HDAC1/2 over HDAC3 (HDAC3; biochemical assay): approximately 100 fold | inhibition of HDAC4 (HDAC4): no inhibition | inhibition of HDAC5 (HDAC5): no inhibition | inhibition of HDAC6 (HDAC6): no inhibition | inhibition of HDAC7 (HDAC7): no inhibition | inhibition of HDAC8 (HDAC8): no inhibition | inhibition of HDAC9 (HDAC9): no inhibition | each β-like globin transcript relative to ACTB (HBG mRNA): increased HBE and HBG mRNA and decreased HBD and HBB mRNA | percent HBG (HBG mRNA; 1 μM): 48% | percent HBG (HBG mRNA; 2 μM): 82% | pharmacokinetic properties [1]: favorable | pharmacokinetic properties [2]: favorable | pharmacokinetic properties [3]: favorable | IC50 (HDAC2 [4]): 18 nM | IC50 (HDAC2 [5]): 304 nM
